The text below walks through data of PubChem BioAssay (NCI).

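A five-concentration, 48-hour dose response in 96-well plates underlies each endpoint, interpolated linearly between surrounding concentrations. GI50: concentration for 50% inhibition of growth. At the TGI there is no net growth.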

The first assay has as its system HOP-62 NSCLC. The assay can be described thus: NCI anticancer screen, dose series, 48 h.
Consider `O=C1c2ccccc2C(=O)c2c1ccc1[nH]c(CCl)nc21`, for which the GI50 was 3.12 µM and the TGI was found to be 9.42 µM.
For `O=C1CSC(N2CCN(c3cccc(Cl)c3)CC2)=N1`, in that order: greater than 100 µM and greater than 100 µM.
For the compound `Cc1cc(C)nc(NS(=O)(=O)c2ccc(NC(=O)c3cccc4c(=O)c5ccccc5[nH]c34)cc2)n1`, the TGI is 56.7 µM.
`COc1ccccc1NC(=O)c1ccc(/C=C/C(=O)c2nccn2C)cc1`: the GI50 was 0.762 µM and the TGI was found to be 2.37 µM.
In the same order, the values of `Cn1cc(C2=C(c3ccc(OC[C@@H](O)CO)cc3)C(=O)NC2=O)c2ccccc21` are greater than 25 µM and greater than 25 µM.
As for `CC(C)(C)C1=NC(S)NC(CCC(=O)Nc2ccccc2[N+](=O)[O-])=C1` (stereo not given), the TGI is greater than 100 µM.

The test system of a further assay is HCC-2998 colon. The assay can be described thus: NCI anticancer screen, dose series, 48 h.
For `O=C1c2ccccc2C(=O)c2c1ccc1[nH]c(CCl)nc21`, the GI50 was 3.41 µM and the TGI was found to be 12.7 µM.
In the same order, the values of `O=C1CSC(N2CCN(c3cccc(Cl)c3)CC2)=N1` are greater than 100 µM and greater than 100 µM.
Compound `Cc1cc(C)nc(NS(=O)(=O)c2ccc(NC(=O)c3cccc4c(=O)c5ccccc5[nH]c34)cc2)n1` gave a TGI of 31.7 µM.
On to `COc1ccccc1NC(=O)c1ccc(/C=C/C(=O)c2nccn2C)cc1`, for which the GI50 was 0.487 µM and the TGI came to 0.912 µM.
In the case of `Cn1cc(C2=C(c3ccc(OC[C@@H](O)CO)cc3)C(=O)NC2=O)c2ccccc21`, the GI50 was greater than 25 µM and the TGI was greater than 25 µM.
Consider `CC(C)(C)C1=NC(S)NC(CCC(=O)Nc2ccccc2[N+](=O)[O-])=C1` (stereo not given), for which the TGI is greater than 100 µM.

The test system of the next assay is UO-31 renal. The assay can be described thus: NCI anticancer screen, dose series, 48 h.
Consider `O=C1c2ccccc2C(=O)c2c1ccc1[nH]c(CCl)nc21`, for which the GI50 was 2.72 µM and the TGI stood at 9.22 µM.
Turning to `O=C1CSC(N2CCN(c3cccc(Cl)c3)CC2)=N1`, the GI50 is greater than 100 µM and the TGI was greater than 100 µM.
As to `Cc1cc(C)nc(NS(=O)(=O)c2ccc(NC(=O)c3cccc4c(=O)c5ccccc5[nH]c34)cc2)n1`, the TGI was 45.7 µM.
Take `COc1ccccc1NC(=O)c1ccc(/C=C/C(=O)c2nccn2C)cc1`: the GI50 is 0.357 µM and the TGI came out at 0.714 µM.
On to `Cn1cc(C2=C(c3ccc(OC[C@@H](O)CO)cc3)C(=O)NC2=O)c2ccccc21`, for which the GI50 is greater than 25 µM and the TGI was greater than 25 µM.
The compound `CC(C)(C)C1=NC(S)NC(CCC(=O)Nc2ccccc2[N+](=O)[O-])=C1` (stereo not given) yielded a TGI greater than 100 µM.

The subject of a further assay is SF-295 CNS. The assay can be described thus: NCI anticancer screen, dose series, 48 h.
For the compound `O=C1c2ccccc2C(=O)c2c1ccc1[nH]c(CCl)nc21`, the GI50 was 7.99 µM and the TGI is 20.6 µM.
Turning to `O=C1CSC(N2CCN(c3cccc(Cl)c3)CC2)=N1`, the GI50 was greater than 100 µM and the TGI was greater than 100 µM.
`Cc1cc(C)nc(NS(=O)(=O)c2ccc(NC(=O)c3cccc4c(=O)c5ccccc5[nH]c34)cc2)n1` gave a TGI of 43.5 µM.
On to `COc1ccccc1NC(=O)c1ccc(/C=C/C(=O)c2nccn2C)cc1`, for which the GI50 is 0.658 µM and the TGI stood at 1.76 µM.
In the same order, the values of `Cn1cc(C2=C(c3ccc(OC[C@@H](O)CO)cc3)C(=O)NC2=O)c2ccccc21` are greater than 25 µM and greater than 25 µM.
On to `CC(C)(C)C1=NC(S)NC(CCC(=O)Nc2ccccc2[N+](=O)[O-])=C1` (stereo not given), for which the TGI was greater than 100 µM.

In a further assay the test system is HL-60(TB) leukemia. The experiment in a line: NCI anticancer screen, dose series, 48 h.
As for `O=C1c2ccccc2C(=O)c2c1ccc1[nH]c(CCl)nc21`, the GI50 was 2.64 µM and the TGI came out at 7 µM.
Consider `O=C1CSC(N2CCN(c3cccc(Cl)c3)CC2)=N1`, for which the GI50 is greater than 100 µM and the TGI was greater than 100 µM.
Turning to `Cc1cc(C)nc(NS(=O)(=O)c2ccc(NC(=O)c3cccc4c(=O)c5ccccc5[nH]c34)cc2)n1`, the TGI turned out to be 47.7 µM.
With `COc1ccccc1NC(=O)c1ccc(/C=C/C(=O)c2nccn2C)cc1`, the GI50 is 0.547 µM and the TGI stood at 1.41 µM.
In the same order, the values of `Cn1cc(C2=C(c3ccc(OC[C@@H](O)CO)cc3)C(=O)NC2=O)c2ccccc21` are greater than 25 µM and greater than 25 µM.
With `CC(C)(C)C1=NC(S)NC(CCC(=O)Nc2ccccc2[N+](=O)[O-])=C1` (stereo not given), the TGI is greater than 100 µM.

Another assay concerns K-562 leukemia. The assay can be described thus: NCI anticancer screen, dose series, 48 h.
As to `O=C1c2ccccc2C(=O)c2c1ccc1[nH]c(CCl)nc21`, the GI50 was 2.98 µM and the TGI is 17 µM.
For `O=C1CSC(N2CCN(c3cccc(Cl)c3)CC2)=N1`, in that order: greater than 100 µM and greater than 100 µM.
The compound `Cc1cc(C)nc(NS(=O)(=O)c2ccc(NC(=O)c3cccc4c(=O)c5ccccc5[nH]c34)cc2)n1` returned a TGI of 90.3 µM.
In the case of `COc1ccccc1NC(=O)c1ccc(/C=C/C(=O)c2nccn2C)cc1`, the GI50 was 0.588 µM and the TGI was 11.6 µM.
For `Cn1cc(C2=C(c3ccc(OC[C@@H](O)CO)cc3)C(=O)NC2=O)c2ccccc21`, the GI50 was greater than 25 µM and the TGI is greater than 25 µM.
Take `CC(C)(C)C1=NC(S)NC(CCC(=O)Nc2ccccc2[N+](=O)[O-])=C1` (stereo not given): the TGI is greater than 100 µM.

Another assay relates to A549 NSCLC. The experiment in a line: NCI anticancer screen, dose series, 48 h.
As for `O=C1c2ccccc2C(=O)c2c1ccc1[nH]c(CCl)nc21`, the GI50 is 2.81 µM and the TGI came to 10.2 µM.
In the case of `O=C1CSC(N2CCN(c3cccc(Cl)c3)CC2)=N1`, the GI50 was greater than 100 µM and the TGI was greater than 100 µM.
In the case of `Cc1cc(C)nc(NS(=O)(=O)c2ccc(NC(=O)c3cccc4c(=O)c5ccccc5[nH]c34)cc2)n1`, the TGI was 51.2 µM.
Consider `COc1ccccc1NC(=O)c1ccc(/C=C/C(=O)c2nccn2C)cc1`, for which the GI50 is 0.74 µM and the TGI is 8.75 µM.
`Cn1cc(C2=C(c3ccc(OC[C@@H](O)CO)cc3)C(=O)NC2=O)c2ccccc21`: the GI50 is greater than 25 µM and the TGI is greater than 25 µM.
On to `CC(C)(C)C1=NC(S)NC(CCC(=O)Nc2ccccc2[N+](=O)[O-])=C1` (stereo not given), for which the TGI is greater than 100 µM.

Another assay concerns CAKI-1 renal. The assay can be described thus: NCI anticancer screen, dose series, 48 h.
Take `O=C1c2ccccc2C(=O)c2c1ccc1[nH]c(CCl)nc21`: the GI50 was 2.61 µM and the TGI stood at 9.89 µM.
As to `O=C1CSC(N2CCN(c3cccc(Cl)c3)CC2)=N1`, the GI50 is greater than 100 µM and the TGI was greater than 100 µM.
For `Cc1cc(C)nc(NS(=O)(=O)c2ccc(NC(=O)c3cccc4c(=O)c5ccccc5[nH]c34)cc2)n1`, the TGI is greater than 100 µM.
On to `COc1ccccc1NC(=O)c1ccc(/C=C/C(=O)c2nccn2C)cc1`, for which the GI50 is 0.453 µM and the TGI worked out at 1.32 µM.
As for `Cn1cc(C2=C(c3ccc(OC[C@@H](O)CO)cc3)C(=O)NC2=O)c2ccccc21`, the GI50 was greater than 25 µM and the TGI is greater than 25 µM.
On to `CC(C)(C)C1=NC(S)NC(CCC(=O)Nc2ccccc2[N+](=O)[O-])=C1` (stereo not given), for which the TGI is greater than 100 µM.

A further assay concerns CCRF-CEM leukemia. The assay can be described thus: NCI anticancer screen, dose series, 48 h.
For `O=C1c2ccccc2C(=O)c2c1ccc1[nH]c(CCl)nc21`, the GI50 is 2.19 µM and the TGI is 6.42 µM.
As for `O=C1CSC(N2CCN(c3cccc(Cl)c3)CC2)=N1`, the GI50 is greater than 100 µM and the TGI is greater than 100 µM.
Regarding `Cc1cc(C)nc(NS(=O)(=O)c2ccc(NC(=O)c3cccc4c(=O)c5ccccc5[nH]c34)cc2)n1`, the TGI was greater than 100 µM.
Turning to `COc1ccccc1NC(=O)c1ccc(/C=C/C(=O)c2nccn2C)cc1`, the GI50 was 0.669 µM and the TGI came to 8.01 µM.
For `Cn1cc(C2=C(c3ccc(OC[C@@H](O)CO)cc3)C(=O)NC2=O)c2ccccc21`, the GI50 was greater than 25 µM and the TGI was greater than 25 µM.
As for `CC(C)(C)C1=NC(S)NC(CCC(=O)Nc2ccccc2[N+](=O)[O-])=C1` (stereo not given), the TGI was greater than 100 µM.

Another assay relates to TK-10 renal. The experiment in a line: NCI anticancer screen, dose series, 48 h.
Turning to `O=C1c2ccccc2C(=O)c2c1ccc1[nH]c(CCl)nc21`, the GI50 was 2.91 µM and the TGI came to 9.79 µM.
In the same order, the values of `O=C1CSC(N2CCN(c3cccc(Cl)c3)CC2)=N1` are greater than 100 µM and greater than 100 µM.
As to `Cc1cc(C)nc(NS(=O)(=O)c2ccc(NC(=O)c3cccc4c(=O)c5ccccc5[nH]c34)cc2)n1`, the TGI amounted to 51 µM.
In the case of `COc1ccccc1NC(=O)c1ccc(/C=C/C(=O)c2nccn2C)cc1`, the GI50 is 0.811 µM and the TGI came to 9.53 µM.
Turning to `Cn1cc(C2=C(c3ccc(OC[C@@H](O)CO)cc3)C(=O)NC2=O)c2ccccc21`, the GI50 is greater than 25 µM and the TGI is greater than 25 µM.
`CC(C)(C)C1=NC(S)NC(CCC(=O)Nc2ccccc2[N+](=O)[O-])=C1` (stereo not given) came in with a TGI greater than 100 µM.
